Assay results reported in US20250171431A1, “HETEROCYCLIC INHIBITORS OF IGF-1R FOR TREATMENT OF DISEASE” (HORIZON THERAPEUTICS IRELAND DAC, priority 2023, published 2025).

Molecular target: IGF-1R (Homo sapiens (Human), UniProt P08069)
Assay: Example B-1: IGF-1R Assay (PC3 cells, IGF1 stimulation, AlphaLISA)
Format: cell-based
Conditions: 200 ng/mL IGF1 stimulation, read-out: Biological Activity against IGF-1R IC50
In short: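 PC3 cells were serum-starved 2 h, treated with serially diluted compounds for 2 h, then stimulated with IGF1 (200 ng/mL final) for 30 min. Lysates were read by AlphaLISA; % inhibition was calculated relative to vehicle and EC80 controls, with IC50 values binned into ranges.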

Chain of IGF-1R (P08069 31-1367): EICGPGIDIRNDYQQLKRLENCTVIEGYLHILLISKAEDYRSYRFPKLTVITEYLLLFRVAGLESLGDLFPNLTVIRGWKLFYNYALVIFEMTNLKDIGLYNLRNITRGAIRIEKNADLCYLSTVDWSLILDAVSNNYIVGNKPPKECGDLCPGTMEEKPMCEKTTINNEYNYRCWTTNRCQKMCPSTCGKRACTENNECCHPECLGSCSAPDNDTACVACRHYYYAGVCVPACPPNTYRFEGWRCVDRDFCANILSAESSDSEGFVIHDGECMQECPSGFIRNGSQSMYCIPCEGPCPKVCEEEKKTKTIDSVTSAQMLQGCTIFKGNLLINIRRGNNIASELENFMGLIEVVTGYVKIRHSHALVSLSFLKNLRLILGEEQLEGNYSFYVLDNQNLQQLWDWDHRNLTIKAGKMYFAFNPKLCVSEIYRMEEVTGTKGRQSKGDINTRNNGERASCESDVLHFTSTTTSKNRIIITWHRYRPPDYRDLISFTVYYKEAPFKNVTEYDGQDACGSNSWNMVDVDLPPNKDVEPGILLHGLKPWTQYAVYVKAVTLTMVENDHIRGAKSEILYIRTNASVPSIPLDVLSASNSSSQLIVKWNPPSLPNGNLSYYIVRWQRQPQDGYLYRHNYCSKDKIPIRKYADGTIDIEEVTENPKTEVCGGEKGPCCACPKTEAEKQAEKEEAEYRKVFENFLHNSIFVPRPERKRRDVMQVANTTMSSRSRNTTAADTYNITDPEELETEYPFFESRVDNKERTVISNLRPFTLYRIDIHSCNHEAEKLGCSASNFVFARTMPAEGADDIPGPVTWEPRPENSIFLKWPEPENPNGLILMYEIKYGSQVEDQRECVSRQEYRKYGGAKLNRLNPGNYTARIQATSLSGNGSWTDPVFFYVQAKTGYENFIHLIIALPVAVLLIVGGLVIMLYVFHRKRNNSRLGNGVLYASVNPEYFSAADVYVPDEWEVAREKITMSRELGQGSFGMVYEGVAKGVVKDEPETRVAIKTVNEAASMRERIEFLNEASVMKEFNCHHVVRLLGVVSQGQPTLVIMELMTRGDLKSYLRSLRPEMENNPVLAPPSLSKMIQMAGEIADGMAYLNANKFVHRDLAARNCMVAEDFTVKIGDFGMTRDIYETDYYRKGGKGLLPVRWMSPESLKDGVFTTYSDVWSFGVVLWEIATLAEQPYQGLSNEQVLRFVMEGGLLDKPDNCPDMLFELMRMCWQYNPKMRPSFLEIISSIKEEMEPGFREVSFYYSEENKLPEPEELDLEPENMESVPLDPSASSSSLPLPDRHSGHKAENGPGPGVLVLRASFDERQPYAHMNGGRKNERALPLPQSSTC

SMILES | IC50
COc1cc(Nc2nccc(Nc3cnc4cncc(F)c4c3)n2)ccc1O[C@H]1C[C@@H](N(C)C)C1 [Compound 274, 4-(5-fluoro-1,7-diaza-3-naphthylamino)-2-{3-methoxy-4-[(1s,3s)-3-(dimethylamino)cyclobutoxy]phenylamino}pyrimidine] | 2000 to 10000 nM
COc1cc(Nc2nccc(Nc3cnc4cc(Br)cnc4c3)n2)ccc1O[C@H]1C[C@@H](N(C)C)C1 [Compound 316, 4-(7-bromo-1,5-diaza-3-naphthylamino)-2-{3-methoxy-4-[(1s,3s)-3-(dimethylamino)cyclobutoxy]phenylamino}pyrimidine] | ≤ 500 nM
O=S1(=O)CCN([C@H]2C[C@H](Oc3ccc(Nc4nccc(Nc5cnc6c(c5)C5CCC6C5)n4)cc3)C2)CC1 (stereo partly drawn) [Compound 351, 4-[(1r,3r)-3-[p-(4-{3-azatricyclo[6.2.1.02,7]undeca-2(7),3,5-trien-5-ylamino}-2-pyrimidinylamino)phenoxy]cyclobutyl]-1λ^6,4-thiazinane-1,1-dione] | 500 to 2000 nM
COc1cc(Nc2nccc(Nc3cnc4c(c3)OCC(C)O4)n2)ccc1OCCCN1CCCCC1 (stereo not drawn) [Compound 101, 2-[3-methoxy-4-(3-piperidinopropoxy)phenylamino]-4-(3-methyl-2,3-dihydro-1,4-dioxa-5-aza-7-naphthylamino)pyrimidine] | ≤ 500 nM
COc1cc(Nc2nccc(Nc3cnc4cc(F)c(F)cc4c3)n2)cnc1N1CC(N(C)C)C1 [Compound 48, 4-(6,7-difluoro-3-quinolylamino)-2-{6-[3-(dimethylamino)-1-azetidinyl]-5-methoxy-3-pyridylamino}pyrimidine] | ≤ 500 nM
COc1cc(Nc2nccc(Nc3cc4cccc(F)c4[nH]c3=O)n2)cnc1N1CCC(O)(C(F)(F)F)CC1 [Compound 228, 8-fluoro-3-(2-{6-[4-hydroxy-4-(trifluoromethyl)-1-piperidyl]-5-methoxy-3-pyridylamino}-4-pyrimidinylamino)-1,2-dihydro-2-quinolinone] | ≤ 500 nM
COc1cc(Nc2nccc(Nc3cc4cccc(F)c4[nH]c3=O)n2)cnc1OC1CC2(C1)CN(C)C2 [Compound 167, 8-fluoro-3-(2-{5-methoxy-6-(2-methyl-2-aza-6-spiro[3.3]heptyloxy)-3-pyridylamino}-4-pyrimidinylamino)-1,2-dihydro-2-quinolinone] | ≤ 500 nM
COc1cc(Nc2nccc(Nc3cnc4c(c3)O[C@H]3CCCC[C@@H]3O4)n2)ccc1O[C@H]1C[C@@H](N(C)C)C1 [Compound 191, 4-[(8aS,10aS)-5,6,7,8,8a,10a-hexahydro-9,10-dioxa-1-aza-3-anthrylamino]-2-{3-methoxy-4-[(1s,3R)-3-(dimethylamino)cyclobutoxy]phenylamino}pyrimidine] | ≤ 500 nM
COc1cc(Nc2nccc(Nc3cnc4cc(F)c(F)cc4c3)n2)cnc1N1CCS(=N)(=O)CC1 [Compound 158, 4-(5-((4-((6,7-difluoroquinolin-3-yl)amino)pyrimidin-2-yl)amino)-3-methoxypyridin-2-yl)-1-imino-116-thiomorpholine 1-oxide] | 500 to 2000 nM
COc1cc(Nc2nccc(Nc3cnc4cc(F)c(F)cc4c3)n2)c(C)cc1O[C@H]1C[C@@H](N(C)C)C1 [Compound 154, N4-(6,7-difluoroquinolin-3-yl)-N2-(4-((1s,3s)-3-(dimethylamino)cyclobutoxy)-5-methoxy-2-methylphenyl)pyrimidine-2,4-diamine] | ≤ 500 nM
COc1cc(Nc2nccc(Nc3cnc4c(c3)CCCO4)n2)ccc1OCCCN1CCCCC1 [Compound 375, 4-(3,4-dihydro-2H-1-oxa-8-azanaphth-6-ylamino)-2-[3-methoxy-4-(3-piperidinopropoxy)phenylamino]pyrimidine] | ≤ 500 nM
COc1cc(Nc2nccc(Nc3cnc4c(Cl)cccc4c3)n2)ccc1O[C@H]1C[C@H](N(C)C)C1 [Compound 358, 4-(8-chloro-3-quinolylamino)-2-{3-methoxy-4-[(1r,3r)-3-(dimethylamino)cyclobutoxy]phenylamino}pyrimidine] | ≤ 500 nM
c1ccc2ncc(Nc3ccnc(Nc4ccc(OCCCN5CCOCC5)cc4)n3)cc2c1 [Compound 394, 2-[p-(3-morpholinopropoxy)phenylamino]-4-(3-quinolylamino)pyrimidine] | ≤ 500 nM
COc1cc(OCCCN2CCCCC2)ccc1Nc1nccc(Nc2cnc3ccccc3c2)n1 [Compound 20, 2-[2-methoxy-4-(3-piperidinopropoxy)phenylamino]-4-(3-quinolylamino)pyrimidine] | ≤ 500 nM
COc1cc(Nc2nccc(Nc3cnc4c(c3)CCC4)n2)ccc1OCCCN1CCCCC1 [Compound 194, 4-(4-aza-6-indanylamino)-2-[3-methoxy-4-(3-piperidinopropoxy)phenylamino] pyrimidine] | ≤ 500 nM
COc1cc(Nc2nccc(Nc3cnc4c(c3)CC[C@@H](C)C4)n2)ccc1OCCCN1CCCCC1 [Compound 71, 4-[(R)-7-methyl-5,6,7,8-tetrahydro-3-quinolylamino]-2-[3-methoxy-4-(3-piperidinopropoxy)phenylamino] pyrimidine] | ≤ 500 nM
COc1cc(Nc2nccc(Nc3cnc4[nH]c(C)cc4c3)n2)ccc1O[C@H]1C[C@@H](N(C)C)C1 [Compound 283, 2-{3-methoxy-4-[(1s,3s)-3-(dimethylamino)cyclobutoxy]phenylamino}-4-(2-methyl-1H-1,7-diazainden-5-ylamino)pyrimidine] | ≤ 500 nM
COc1cc(Nc2nccc(Nc3cnc4cc(F)c(F)cc4c3)n2)cnc1N1CCNC(C(C)(C)O)C1 (stereo not drawn) [Compound 52, 2-(4-{5-[4-(6,7-difluoro-3-quinolylamino)-2-pyrimidinylamino]-3-methoxy-2-pyridyl}-2-piperazinyl)-2-propanol] | ≤ 500 nM
COc1cc(Nc2nccc(Nc3ccc4c(c3)CCN(C)C4)n2)ccc1OCCCN1CCCCC1 [Compound 450, 2-[3-methoxy-4-(3-piperidinopropoxy)phenylamino]-4-(2-methyl-1,2,3,4-tetrahydro-6-isoquinolylamino) pyrimidine] | 500 to 2000 nM
COc1cc(Nc2nccc(Nc3cccnc3C(N)=O)n2)ccc1O[C@H]1C[C@@H](N(C)C)C1 [Compound 284, 3-(2-{3-methoxy-4-[(1s,3s)-3-(dimethylamino)cyclobutoxy]phenylamino}-4-pyrimidinylamino)-2-pyridinecarboxamide] | ≤ 500 nM
O=C1CN([C@H]2CC[C@@H](Oc3ccc(Nc4nccc(Nc5cnc6ccc(Cl)cc6c5)n4)cc3)CC2)CCN1 [Compound 308] | ≤ 500 nM
COc1nc(N2CCN(C)CC2)ccc1Nc1nccc(Nc2cnc3ccc(Cl)cc3c2)n1 [Compound 485, 4-(6-chloro-3-quinolylamino)-2-[2-methoxy-6-(4-methyl-1-piperazinyl)-3-pyridylamino]pyrimidine] | ≤ 500 nM

The next lines start with the values.

IC50 | SMILES
≤ 500 nM | COc1nc(N2CCN(C)CC2)ccc1Nc1nccc(Nc2cc3cccc(F)c3nc2O)n1 [Compound 90, 8-fluoro-3-{2-[2-methoxy-6-(4-methyl-1-piperazinyl)-3-pyridylamino]-4-pyrimidinylamino}-2-quinolinol]
≤ 500 nM | COc1cc(Nc2nccc(Nc3cnc4ccccc4c3)n2)ccc1OCCCN1CCOCC1 [Compound 14, 2-[3-methoxy-4-(3-morpholinopropoxy)phenylamino]-4-(3-quinolylamino)pyrimidine]
≤ 500 nM | CN1CC2(Cc3ccc(Nc4nccc(Nc5cc6cccc(F)c6[nH]c5=O)n4)cc3O2)C1 [Compound 45, 8-fluoro-3-{2-(1-methyl-3′H-spiro[azetidine-3,2′-[1]benzofuran]-6′-ylamino)-4-pyrimidinylamino}-1,2-dihydro-2-quinolinone]
≤ 500 nM | COc1cc(Nc2nccc(Nc3cnc4c(c3)C3CCC4C3)n2)ccc1OCCCN1CCCCC1 (stereo not drawn) [Compound 56, 4-(3-azatricyclo[6.2.1.0^2,7]undeca-2,4,6-trien-5-ylamino)-2-[3-methoxy-4-(3-piperidinopropoxy)phenylamino] pyrimidine]
≤ 500 nM | COc1cc(Nc2nccc(Nc3cnc4c(C)cccc4c3)n2)ccc1OCCCN1CCCCC1 [Compound 99, 2-[3-methoxy-4-(3-piperidinopropoxy)phenylamino]-4-(8-methyl-3-quinolylamino)pyrimidine]
≤ 500 nM | CN(C)CC1Cc2ccc(Nc3nccc(Nc4cc5cccc(F)c5[nH]c4=O)n3)cc2O1 (stereo not drawn) [Compound 243, 3-(2-{2-[(dimethylamino)methyl]-2,3-dihydro-1-benzofuran-6-ylamino}-4-pyrimidinylamino)-8-fluoro-1,2-dihydro-2-quinolinone]
≤ 500 nM | COc1cc(N2CCC(C)(O)CC2)ncc1Nc1ncc(F)c(Nc2cc3ccccc3nc2C(N)=O)n1 [Compound 492, 3-{5-fluoro-2-[6-(4-hydroxy-4-methyl-1-piperidyl)-4-methoxy-3-pyridylamino]-4-pyrimidinylamino}-2-quinolinecarboxamide]
≤ 500 nM | COc1cc(Nc2nccc(Nc3cc4cccc(F)c4[nH]c3=O)n2)cnc1N1CCN(CC(F)(F)F)CC1 [Compound 232, 8-fluoro-3-(2-{5-methoxy-6-[4-(2,2,2-trifluoroethyl)-1-piperazinyl]-3-pyridylamino}-4-pyrimidinylamino)-1,2-dihydro-2-quinolinone]
≤ 500 nM | COc1cc(Nc2nccc(Nc3cnc4c(c3)CSCC4)n2)ccc1OCCCN1CCCCC1 [Compound 377, 4-(7,8-dihydro-5H-6-thia-1-azanaphth-3-ylamino)-2-[3-methoxy-4-(3-piperidinopropoxy)phenylamino]pyrimidine]
≤ 500 nM | COc1cc(Nc2nccc(Nc3cnc4cc(C5CC5)ccc4c3)n2)ccc1OCCCN1CCCCC1 [Compound 107, 4-(7-cyclopropyl-3-quinolylamino)-2-[3-methoxy-4-(3-piperidinopropoxy)phenylamino]pyrimidine]
≤ 500 nM | c1cc(Nc2cnc3c(c2)OCCO3)nc(Nc2ccc(OCCCN3CCOCC3)cc2)n1 [Compound 388, 4-(2,3-dihydro-1,4-dioxa-5-aza-7-naphthylamino)-2-[p-(3-morpholinopropoxy)phenylamino]pyrimidine]
